The numbers were not newly measured in paper PMC5911155 (Nature chemistry, 2018), which cites them from elsewhere.

The test system of the data set is Aβ42 monomers. As to conditions: ref [7], [42].

In the case of “Aβ40: fibrils constructed from other proteins and peptides, including Aβ40”, the “ability of fibrils to catalyse nucleation of Aβ42 monomers” value was “not able to efficiently catalyse nucleation of Aβ42 monomers”.
